# Measured values published in ChEMBL document CHEMBL6103654, “Design, Biological Characterization, and Discovery of Capromorelin Derivatives as Oral Growth Hormone Secretagogue Receptor Type 1a Agonist for the Treatment of Growth Hormone Deficiency” (J Med Chem, 2025).
# Calls of active or inactive are those of the source. No cut-off for these calls is given here.
# Legend:
# Rattus norvegicus [1] = experiment: Induction of growth hormone level in adult Sprague-Dawley rat blood at 0.5 mg/kg, po administered as single dose measured after 40 mins by ELISA method (reference value: 14.4+/-6.9 ng/mL); format: functional
# Rattus norvegicus [2] = experiment: Induction of growth hormone level in Juvenile Sprague-Dawley rat blood at 0.2 mg/kg, po administered as single dose measured after 2 hrs by ELISA method (reference value: 26.5+/-7.3 ng/mL); format: functional
# [3] = Volume of distribution in male mouse at 1 mg/kg, iv administered as single dose measured after 4 hrs; format: ADME, organism-based; settings: in vivo
# Cytochrome P450 3A4 [4] = target: T1, Cytochrome P450 3A4 (Homo sapiens, UniProt P08684); experiment: Inhibition of CYP3A4 in human liver microsome using midazolam as substrate incubated for 5 min in presence of NADPH by UPLC-MS/MS analysis; format: ADME, microsomes
# Rattus norvegicus [5] = experiment: Induction of growth hormone level in 6 week-old female Sprague-Dawley rat assessed as increase in body weight at 2.5 mg/kg, po measured after 10 days; format: functional, organism-based; settings: time 10.0 day
# Cytochrome P450 3A4 [6] = target: T1, Cytochrome P450 3A4; experiment: Inhibition of CYP3A4 in human liver microsome using testosterone as substrate incubated for 5 min in presence of NADPH by UPLC-MS/MS analysis; format: ADME, microsomes
# [7] = Plasma protein binding in dog assessed as unbound fraction measured after 6 hrs by dialysis method; format: ADME, cell-free, Canis lupus familiaris
# Rattus norvegicus [8] = experiment: Induction of growth hormone level in Juvenile Sprague-Dawley rat blood at 0.5 mg/kg, po administered as single dose measured after 2 hrs by ELISA method (reference value: 26.5+/-7.3 ng/mL); format: functional
# CHO [9] = experiment: Agonist activity at monkey GHSR expressed in CHO cells at maximum concentration incubated for 60 min by FLIPR assay relative to control; format: cell-based; settings: Macaca mulatta, filed as agonist
# Rattus norvegicus [10] = experiment: Induction of growth hormone level in adult Sprague-Dawley rat blood at 0.2 mg/kg, po administered as single dose measured after 10 mins by ELISA method (reference value: 13.7+/-7.2 ng/mL); format: functional
# Rattus norvegicus [11] = experiment: In vivo agonist activity at GSHR in Sprague-Dawley rat assessed as increase in body weight at 10 to 100 mg/kg, po administered once daily for 14 days; format: functional, organism-based; settings: dose 10-100 mg/kg, time 14.0 day
# Rattus norvegicus [12] = experiment: Induction of growth hormone level in adult Sprague-Dawley rat blood at 0.5 mg/kg, po administered as single dose measured after 20 mins by ELISA method (reference value: 4.9+/-1.1 ng/mL); format: functional
# Rattus norvegicus [13] = experiment: Induction of growth hormone level in Juvenile Sprague-Dawley rat blood at 0.5 mg/kg, po administered as single dose measured after 20 mins by ELISA method (reference value: 29.1+/-8.6 ng/mL); format: functional
# Rattus norvegicus [14] = experiment: Induction of growth hormone level in 4 week-old male Sprague-Dawley rat assessed as increase in body length at 2.5 mg/kg, po measured after 10 days; format: functional, organism-based; settings: time 10.0 day
# [15] = AUC in male dog at 2 mg/kg, po administered as single dose measured after 4 hrs; format: ADME, organism-based, Canis lupus familiaris; settings: in vivo
# Rattus norvegicus [16] = experiment: Induction of growth hormone level in Juvenile Sprague-Dawley rat blood at 0.1 mg/kg, po administered as single dose measured immediately by ELISA method (reference value: 28.5+/-8.7 ng/mL); format: functional
# [17] = Half life in male dog at 0.5 mg/kg, iv administered as single dose measured after 4 hrs; format: ADME, organism-based, Canis lupus familiaris; settings: in vivo
# [18] = Metabolic stability in dog liver microsome assessed as half life at 1 uM measured upto 60 mins in presence of NADPH by LC-MS/MS analysis; format: ADME, Canis lupus familiaris; settings: liver microsomes
# [19] = Half life in male dog at 2 mg/kg, po administered as single dose measured after 4 hrs; format: ADME, organism-based, Canis lupus familiaris; settings: in vivo
# [20] = Tmax in male monkey at 2 mg/kg, po administered as single dose measured after 4 hrs; format: ADME, organism-based, Macaca mulatta; settings: rhesus monkey, in vivo
# Rattus norvegicus [21] = experiment: Induction of growth hormone level in adult Sprague-Dawley rat blood at 0.2 mg/kg, po administered as single dose measured after 20 mins by ELISA method (reference value: 4.9+/-1.1 ng/mL); format: functional
# [22] = Plasma protein binding in mouse assessed as unbound fraction measured after 6 hrs by dialysis method; format: ADME, cell-free
# Rattus norvegicus [23] = experiment: Induction of growth hormone level in Juvenile Sprague-Dawley rat blood at 0.5 mg/kg, po administered as single dose measured immediately by ELISA method (reference value: 28.5+/-8.7 ng/mL); format: functional
# [24] = Metabolic stability in monkey liver microsome assessed as half life at 1 uM measured upto 60 mins in presence of NADPH by LC-MS/MS analysis; format: ADME, Macaca mulatta; settings: rhesus monkey, liver microsomes
# [25] = AUC in male monkey at 2 mg/kg, po administered as single dose measured after 4 hrs; format: ADME, organism-based, Macaca mulatta; settings: rhesus monkey, in vivo
# Rattus norvegicus [26] = experiment: Induction of growth hormone level in Juvenile Sprague-Dawley rat blood at 0.5 mg/kg, po administered as single dose measured after 4 hrs by ELISA method (reference value: 32.5+/-4.5 ng/mL); format: functional
# Rattus norvegicus [27] = experiment: Induction of growth hormone level in Juvenile Sprague-Dawley rat blood by measuring AUC(0 to 40 mins) at 0.1 mg/kg, po administered as single dose by ELISA method (reference value: 20.2+/-4.3 ng/mL); format: functional, organism-based; settings: time 4.0 hrs
# Rattus norvegicus [28] = experiment: Induction of growth hormone level in 4 week-old male Sprague-Dawley rat assessed as increase in body weight at 2.5 mg/kg, po measured after 10 days; format: functional, organism-based; settings: time 10.0 day
# [29] = Genotoxicity in Salmonella typhimurium TA1535 by Ames test; format: toxicity; settings: salmonella enterica subsp. enterica serovar typhimurium
# [30] = Metabolic stability in monkey liver microsome assessed as intrinsic clearance at 1 uM measured upto 60 mins in presence of NADPH by LC-MS/MS analysis; format: ADME, Macaca mulatta; settings: rhesus monkey, liver microsomes, read-out: CLH
# Rattus norvegicus [31] = experiment: Induction of growth hormone level in Juvenile Sprague-Dawley rat blood at 0.2 mg/kg, po administered as single dose measured after 4 hrs by ELISA method (reference value: 32.5+/-4.5 ng/mL); format: functional
# [32] = Metabolic stability in human liver microsome assessed as hepatic clearance at 1 uM measured upto 60 mins in presence of NADPH by LC-MS/MS analysis; format: ADME; settings: liver microsomes, read-out: CLH
# Rattus norvegicus [33] = experiment: Induction of growth hormone level in adult Sprague-Dawley rat blood at 0.1 mg/kg, po administered as single dose measured after 40 mins by ELISA method (reference value: 14.4+/-6.9 ng/mL); format: functional
# CHO [34] = experiment: Agonist activity at dog GHSR expressed in CHO cells at maximum concentration incubated for 60 min by FLIPR assay relative to control; format: cell-based; settings: Canis lupus familiaris, filed as agonist
# Rattus norvegicus [35] = experiment: Induction of growth hormone level in adult Sprague-Dawley rat blood by measuring AUC(0 to 40 mins) at 0.1 mg/kg, po administered as single dose by ELISA method (reference value: 7.0+/-1.7 ng/mL); format: functional, organism-based
# Rattus norvegicus [36] = experiment: Induction of growth hormone level in 6 week-old male Sprague-Dawley rat assessed as increase in body length at 2.5 mg/kg, po measured after 10 days; format: functional, organism-based; settings: time 10.0 day
# T1 sequence (P08684 whole entry): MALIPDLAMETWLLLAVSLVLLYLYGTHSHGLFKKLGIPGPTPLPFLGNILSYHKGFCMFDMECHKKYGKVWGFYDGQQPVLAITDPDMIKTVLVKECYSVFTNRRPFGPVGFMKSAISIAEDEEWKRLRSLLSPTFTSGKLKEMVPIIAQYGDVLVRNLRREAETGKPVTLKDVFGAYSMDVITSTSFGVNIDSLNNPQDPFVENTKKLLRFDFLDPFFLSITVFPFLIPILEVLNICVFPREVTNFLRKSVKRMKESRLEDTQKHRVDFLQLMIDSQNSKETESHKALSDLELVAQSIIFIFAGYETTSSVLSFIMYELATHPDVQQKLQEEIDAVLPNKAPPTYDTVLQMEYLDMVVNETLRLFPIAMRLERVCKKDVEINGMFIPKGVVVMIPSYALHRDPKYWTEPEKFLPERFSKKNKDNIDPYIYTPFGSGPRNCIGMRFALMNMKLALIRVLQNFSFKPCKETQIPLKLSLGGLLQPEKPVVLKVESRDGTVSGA
structure (smiles),measurement,setting,value
CC(C)(N)C(=O)N[C@H](COCc1ccccc1)C(=O)N1CCC2=NN(C3CC3)C(=O)[C@]2(Cc2ccccc2)C1,Activity,Rattus norvegicus [1],27.8 ng/mL
same,Activity,Rattus norvegicus [2],32.3 ng/mL
same,Vd,[3],2.94 L/kg
same,IC50,Cytochrome P450 3A4 [4],> 30 µM
same,Activity,Rattus norvegicus [5],Active
same,IC50,Cytochrome P450 3A4 [6],> 30 µM
same,fraction unbound at 6 h,[7],0.563
same,Activity,Rattus norvegicus [8],34.4 ng/mL
same,Activity,CHO [9],106%
same,Activity,Rattus norvegicus [10],228.6 ng/mL
same,Activity,Rattus norvegicus [11],Active
same,Activity,Rattus norvegicus [12],68.8 ng/mL
same,Activity,Rattus norvegicus [13],223.2 ng/mL
same,Activity,Rattus norvegicus [14],Active
same,AUC at 4 h,[15],406 ng·h/mL
same,Activity,Rattus norvegicus [16],31.1 ng/mL
same,half-life,[17],56.4 min
same,half-life at 1 µM,[18],10.3 min
same,half-life,[19],71.4 min
same,Tmax,[20],79.8 min
same,Activity,Rattus norvegicus [21],73.2 ng/mL
same,fraction unbound at 6 h,[22],0.621
same,Activity,Rattus norvegicus [23],42.8 ng/mL
same,half-life at 1 µM,[24],3.1 min
same,AUC,[25],75.13 ng·h/mL
same,Activity,Rattus norvegicus [26],56.7 ng/mL
same,AUC,Rattus norvegicus [27],109 ng·h/mL
same,Activity,Rattus norvegicus [28],Active
same,Activity,[29],Non-toxic
same,microsomal CLint at 1 µM,[30],451 µL/min/mg
same,Activity,Rattus norvegicus [31],43.5 ng/mL
same,CLint scaled at 1 µM,[32],127 mL/min/kg
same,Activity,Rattus norvegicus [33],27.6 ng/mL
same,Activity,CHO [34],124%
same,AUC,Rattus norvegicus [35],61 ng·h/mL
same,Activity,Rattus norvegicus [36],Active
